Legend:
[1] = tested on: lipid peroxidation processes (LPP) in murine liver homogenate; experiment: Antioxidant activity: inhibition of lipid peroxidation processes (LPP) in liver homogenate, thiobarbituric acid colour reaction; format: biochemical, BDF-1 (nondescript) mice; conditions: conventional unit = quantity required for 50% inhibition of LPP; 3 h at 37°C
Protocol: The antioxidant activity of the extracts was determined from the ability of a sample to inhibit the lipid peroxidation processes (LPP) in murine liver homogenate.
The antioxidant activity was used by using a method based on the ability of the sample being investigated to inhibit LPP processes in murine liver homogenate. The liver of BDF-1 (nondescript) mice was homogenized in a glass homogenizer and then centrifugated. The liver homogenate was introduced in an amount of 5-6 mg of protein per assay. The volume of the assay was brought to 0.5 ml with a solution of the sample being tested for the antioxidant activity. The assays were incubated for 3 h at 37°C.
The concentration of the LPP products was determined from the color reaction with thiobarbituric acid. The quantity of the antioxidant required for the 50% inhibition of LPP was adopted as a conventional unit of the sample under investigation.

Lymphoid leukemia L1210 = experiment: Influence of extract samples on curative effect of DDP in L1210 leukemia (TGI, LI); format: in vivo, mice BDF1; conditions: for TGI, % days 4: day 4; for TGI, % days 6: day 6; for TGI, % days 8: day 8; for LI, %: lifetime increase
Protocol: In addition, the effect of the extracts on the therapeutic activity of the cytostatic cis-dichlorodiamine platinum (DDP) was estimated.
Lymphoid leukemia L1210 was inoculated to BDF1 males in a sterile physiologic salt solution, 3x10^6 cells in 0.2 ml volume. The day of the inoculation was regarded as the zero day of tumor growth. The extract samples and DDP were administered in the doses and under the conditions specified in Tables 4, 5.
Treatment of the animals was started 24 hours after the tumor inoculation, control animals were administered a physiologic salt solution instead of the vegetable extracts. The antitumoric effect was estimated from the tumor growth inhibition (TGI) calculated from theformula: TGI = [(Vcontrol - Vexperiment)/Vcontrol]x100%; [formula] mean lifetime (ML), lifetime increase (LI) calculated from the formula: LI = [(MLexperiment - MLcontrol)/Mlcontrol]x100%. [formula] TGI > 50%, LI > 50% were considered to be biologically significant effects.
The obtained data were processed in accordance with the Fisher-Student procedure, using statistical programs. The differences were regarded confident at p < 0.05.

[2] = tested on: cell culture of human pulmonary adenocarcinoma A-549; experiment: Cytotoxic activity in vitro: inhibition of proliferation of A-549 cell culture, colorimetric; format: cell-based
Protocol: The cytotoxic activity of the extracts in vitro was determined with the help of a biological test based on inhibition of the proliferation of the inoculated cell culture of human pulmonary adenocarcinoma A-549 [7].
When carrying out the cytotoxic biological test in vitro, each well of a flat-bottomed 96-well microtiter (Sarstedt, USA) was charged with 10 µl of a suspension of A549-line cells in a concentration of 1x10^5 cell/ml; 24 h later series dilutions of the vegetable preparations in the range of 1:4-1:64 were added, this corresponding to 3.0-0.1 mg/ml in the volume of 100 µl/well. The cytotoxic activity of the extracts and DDP was estimated colorimetrically. The results were expressed in the percentage of inhibition of the A-549 test-culture proliferation. The cytotoxic activity of the sample was adopted to be the maximum titer of the sample, at which the biologically significant (50%) level of inhibition of the A-549 test-culture proliferation was observed.

CC1=C(/C=C/C(C)=C/C=C/C(C)=C/C=C/C=C(C)/C=C/C=C(C)/C=C/C2=C(C)CCCC2(C)C)C(C)(C)CCC1 [β-Carotene]
Antioxidant activity, conv. units (1/mg) [1]: 6 conv. units (1/mg)

N.N.[Cl][Pt][Cl] [DDP, cis-dichlorodiamine platinum]
TGI, % days 4 (Lymphoid leukemia L1210; DDP alone 9 mg/kg): 100% | TGI, % days 6 (Lymphoid leukemia L1210; DDP alone 9 mg/kg): 93% | TGI, % days 8 (Lymphoid leukemia L1210; DDP alone 9 mg/kg): 33% | LI, % (Lymphoid leukemia L1210; DDP alone 9 mg/kg): 41% | TGI, % days 4 (Lymphoid leukemia L1210; DDP alone 10 mg/kg): 100% | TGI, % days 6 (Lymphoid leukemia L1210; DDP alone 10 mg/kg): 87% | TGI, % days 8 (Lymphoid leukemia L1210; DDP alone 10 mg/kg): 65% | LI, % (Lymphoid leukemia L1210; DDP alone 10 mg/kg): 32% | Inhibition, % ([2]; A-549 proliferation, at the titer/concentration in the column beside it): 68% | Maximum titer (as concentration) ([2]; DDP control): 10 µg/mL | ability to inhibit proliferation of the cell culture A-549 ([2]; at the concentration of 0.01 mg/ml): 68%

O=C1O[C@H]([C@@H](O)CO)C(O)=C1O [Ascorbic acid (vitamin C), Ascorbic acid]
Antioxidant activity, conv. units (1/mg) [1]: 12 conv. units (1/mg)

Retinol acetate [Retinol acetate (vitamin A)]
Antioxidant activity, conv. units (1/mg) [1]: 83 conv. units (1/mg)

From patent publication EP0934746B1, “SUBSTANCE IN THE FORM OF AN AQUEOUS EXTRACT OF VEGETAL RAW MATERIAL FOR TREATING ONCOLOGICAL DISEASES, AND METHOD FOR PRODUCING THE SAME” (Gosudarstvenny Nauchny Tsentr Rossiiskoi Federatsii …, priority 1996, dated 1998)
